Results: ChEMBL document CHEMBL4359834 (J Med Chem, 2019)
pIC50, pKi: −log10 of the molar value.

Assays:
[1] = Inhibition of Class 1 PI3K/mTOR in human A2058 cells assessed as reduction in Akt phosphorylation at Ser473 residue incubated for 1 hr by InCell Western assay; format: cell-based; conditions: A2058, 1 h
[2] = target: Phosphatidylinositol 4,5-bisphosphate 3-kinase catalytic subunit alpha isoform (Homo sapiens, UniProt P42336); assay: Displacement of Alexafluor labelled kinase tracer314 from recombinant N-terminal His6-tagged PI3K p110alpha (unknown origin) incubated for 1 hr by FRET-based LanthaScreen Eu kinase binding assay
[3] = target: Serine/threonine-protein kinase mTOR (Homo sapiens, UniProt P42345); assay: Displacement of Alexafluor labelled kinase tracer314 from recombinant human C-terminal GST-tagged mTOR (1360 to 2549 amino acids) expressed in insect cells incubated for 1 hr by FRET-based LanthaScreen Eu kinase binding assay
cells = conditions: Homo sapiens, A2058, 1 h
Description: Inhibition of Class 1 PI3K/mTOR in human A2058 cells assessed as reduction in S6 phosphorylation at Ser235/236 residue incubated for 1 hr by InCell Western assay

[4] = Intrinsic clearance in human hepatocytes assessed per 10^6 cells; format: ADME, cell-based, Hepatocyte; conditions: read-out: CLH
[5] = Intrinsic clearance in rat hepatocytes assessed per 10^6 cells; format: ADME, cell-based, Hepatocyte; conditions: read-out: CLH
[6] = Intrinsic clearance in dog hepatocytes assessed per 10^6 cells; format: ADME, cell-based, Canis lupus familiaris, Hepatocyte; conditions: read-out: CLH
[7] = Intrinsic clearance in mouse hepatocytes assessed per 10^6 cells; format: ADME, cell-based, Hepatocyte; conditions: read-out: CLH
[8] = Half-life clearance in human hepatocytes; format: ADME, cell-based, Hepatocyte
[9] = Half-life in rat hepatocytes; format: ADME, cell-based, Hepatocyte
[10] = Half-life in dog hepatocytes; format: ADME, cell-based, Canis lupus familiaris, Hepatocyte
[11] = Half-life in mouse hepatocytes; format: ADME, cell-based, Hepatocyte

Phosphatidylinositol 4,5-bisphosphate 3-kinase catalytic subunit alpha isoform, sequence (P42336 whole entry, the tested form may be a part, canonical isoform): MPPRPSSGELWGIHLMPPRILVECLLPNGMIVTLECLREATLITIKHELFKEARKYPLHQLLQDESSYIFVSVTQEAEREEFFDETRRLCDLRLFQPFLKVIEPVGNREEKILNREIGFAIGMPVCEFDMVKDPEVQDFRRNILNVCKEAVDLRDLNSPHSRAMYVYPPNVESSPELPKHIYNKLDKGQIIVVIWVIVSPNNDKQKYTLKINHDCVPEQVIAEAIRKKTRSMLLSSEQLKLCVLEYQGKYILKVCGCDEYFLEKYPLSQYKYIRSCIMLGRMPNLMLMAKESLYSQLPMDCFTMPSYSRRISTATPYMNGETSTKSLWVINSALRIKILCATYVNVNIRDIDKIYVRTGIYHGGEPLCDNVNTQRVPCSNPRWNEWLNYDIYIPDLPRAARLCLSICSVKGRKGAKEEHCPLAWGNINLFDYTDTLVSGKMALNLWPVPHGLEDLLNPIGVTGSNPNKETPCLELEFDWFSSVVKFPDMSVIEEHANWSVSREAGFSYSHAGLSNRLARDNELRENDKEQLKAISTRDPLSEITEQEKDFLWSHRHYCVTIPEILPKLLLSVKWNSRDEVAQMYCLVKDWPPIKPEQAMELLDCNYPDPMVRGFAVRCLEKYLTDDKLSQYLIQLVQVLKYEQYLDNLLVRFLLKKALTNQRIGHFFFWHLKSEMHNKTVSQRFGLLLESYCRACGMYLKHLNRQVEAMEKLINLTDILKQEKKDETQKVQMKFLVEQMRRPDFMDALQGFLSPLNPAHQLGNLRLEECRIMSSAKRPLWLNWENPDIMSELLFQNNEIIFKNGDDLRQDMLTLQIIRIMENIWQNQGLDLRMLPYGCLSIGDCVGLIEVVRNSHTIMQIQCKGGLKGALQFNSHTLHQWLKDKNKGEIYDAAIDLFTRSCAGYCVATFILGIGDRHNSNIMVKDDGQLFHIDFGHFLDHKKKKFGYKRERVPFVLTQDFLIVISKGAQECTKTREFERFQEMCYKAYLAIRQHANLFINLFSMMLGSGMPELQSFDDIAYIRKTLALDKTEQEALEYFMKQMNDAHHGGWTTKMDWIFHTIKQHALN

Row | Compound | pIC50 [1] | pKi [2] | pKi [3] | pIC50 (cells) | hepatocyte CLint [4] [µL/min/1e6 cells] | hepatocyte CLint [5] [µL/min/1e6 cells] | hepatocyte CLint [6] [µL/min/1e6 cells] | hepatocyte CLint [7] [µL/min/1e6 cells] | half-life [8] [min] | half-life [9] [min] | half-life [10] [min] | half-life [11] [min]
1 | C[C@@H]1COC[C@@H](C)N1c1nc(-c2cnc(N)cc2C(F)(F)F)nc(N2[C@H](C)COC[C@H]2C)n1 | < 4.70 | < 4.70 | 5.72 | 4.84 | – | – | – | – | – | – | – | –
2 | O=c1ccc2ccc(O)cc2o1 [UMBELLIFERONE] | – | – | – | – | 65.5 | 124 | 138 | 116 | 21.1 | 11.1 | 10.2 | 11.9
3 | C[C@H]1COCCN1c1cc(-c2cnc(N)cc2C(F)F)nc(N2CCOCC2)n1 | 6.21 | 7.86 | 7.37 | 6.12 | – | – | – | – | – | – | – | –

The remaining molecules from weak to strong by pIC50 [1], led by results:

Row | pIC50 [1] | pKi [2] | pKi [3] | pIC50 (cells) | hepatocyte CLint [4] [µL/min/1e6 cells] | hepatocyte CLint [5] [µL/min/1e6 cells] | hepatocyte CLint [6] [µL/min/1e6 cells] | hepatocyte CLint [7] [µL/min/1e6 cells] | half-life [8] [min] | half-life [9] [min] | half-life [10] [min] | half-life [11] [min] | Compound
4 | 7.00 | 7.82 | 7.23 | 6.90 | – | – | – | – | – | – | – | – | C[C@H]1COC[C@H](C)N1c1nc(-c2cnc(N)cc2C(F)(F)F)nc(N2CCOCC2)n1
5 | 7.04 | 8.40 | 7.42 | 6.79 | – | – | – | – | – | – | – | – | C[C@H]1COCCN1c1nc(-c2cnc(N)nc2C(F)(F)F)nc(N2CCOCC2)n1
6 | 7.11 | 8.39 | 7.82 | 6.84 | – | – | – | – | – | – | – | – | C[C@H]1COCCN1c1nc(-c2cnc(N)nc2C(F)F)cc(N2CCOCC2)n1
